From patent US20230023092A1, “TREATMENT OF DEPRESSION AND OTHER VARIOUS DISORDERS WITH PSILOCYBIN” (COMPASS […], priority 2019, published 2023)

What was measured:
healthy subjects [1] = assay: Scale of Social Responsibility (SSR); format: in vivo, human
Procedure: In some embodiments, the Scale of Social Responsibility (SSR) is utilized to evaluate the safety and/or efficacy of psilocybin. The SSR measures perceptions regarding the importance of ethics and social responsibility.
The Pictorial Empathy Test (PET), Reading the Mind in the Eyes Test (RMET), Scale of Social Responsibility (SSR), Social Value Orientation (SVO), and Toronto Empathy Questionnaire (TEQ) were performed. Table 20 summarizes the results of the mixed model for repeated measures (MMRM) analysis for each of the aforementioned social cognition panel scales measured on Day 7 and Day 84 after study drug administration.

healthy subjects [2] = assay: Symptom Checklist-90 Item (SCL-90); format: in vivo, human; details: Day 7
Text: In some embodiments, the Symptom Checklist-90 item (SCL-90) questionnaire is used to evaluate the safety and/or efficacy of psilocybin. The SCL-90 is a relatively brief self-report psychometric instrument designed to evaluate a broad range of psychological problems and symptoms of psychopathology. In some embodiments, the SCL-90 is used to assess somatization, obsessive-compulsive behaviors, interpersonal sensitivity, depression, anxiety, hostility, phobic anxiety, paranoid ideation, and psychoticism of a subject treated according to the methods of the disclosure. The 90 items in the questionnaire are scored on a 5-point Likert scale, indicating the rate of occurrence of the symptom during the time reference. In some embodiments, after treating according to the methods of the disclosure, a subject's SCL-90 score decreases by about 5% to about 100%, for example, by about 5%, about 10%, about 15%, about 20%, about 25%, about 30%, about 35%, about 40%, about 45%, about 50%, about 55%, about 60%, about 65%, about 70%, about 75%, about 80%, about 85%, about 90%, about 95%, or about 100%.
The Neuroticism Extraversion Openness-Five Factor Inventory (NEO-FFI) and Symptom Checklist-90 Item (SCL-90) were administered. Details of the MMRM applied to the change from baseline scores for the NEO-FFI and SCL-90 are provided below in Table 2Q.

[3] = Day 7, psilocybin 10 mg - placebo
[4] = Day 7, psilocybin 25 mg - 10 mg
[5] = Day 7, psilocybin 25 mg - placebo
[6] = Day 84, psilocybin 10 mg - placebo
[7] = Day 84, psilocybin 25 mg - 10 mg
[8] = Day 84, psilocybin 25 mg - placebo

## CN(C)CCc1c[nH]c2cccc(OP(=O)(O)O)c12 [Psilocybin, psilocybin]
Healthy subjects [1]; Day 7, psilocybin 10 mg
  SSR compliance social rules change from baseline (LS mean): −0.1
  SSR fullfilling expectations change from baseline (LS mean): −0.1
  SSR global change from baseline (LS mean): −2.0
Healthy subjects [1]; [3]
  SSR compliance social rules change from baseline, LS mean difference: 0.0
  SSR fullfilling expectations change from baseline, LS mean difference: 0.1
  SSR global change from baseline, LS mean difference: 1.2
Healthy subjects [1]; Day 7, psilocybin 25 mg
  SSR compliance social rules change from baseline (LS mean): 0.0
  SSR fullfilling expectations change from baseline (LS mean): −0.0
  SSR global change from baseline (LS mean): −0.3
Healthy subjects [1]; [4]
  SSR compliance social rules change from baseline, LS mean difference: 0.1
  SSR fullfilling expectations change from baseline, LS mean difference: 0.1
  SSR global change from baseline, LS mean difference: 1.6
Healthy subjects [1]; [5]
  SSR compliance social rules change from baseline, LS mean difference: 0.1
  SSR fullfilling expectations change from baseline, LS mean difference: 0.2
  SSR global change from baseline, LS mean difference: 2.8
Healthy subjects [1]; Day 84, psilocybin 10 mg
  SSR compliance social rules change from baseline (LS mean): −0.1
  SSR fullfilling expectations change from baseline (LS mean): −0.2
  SSR global change from baseline (LS mean): −1.8
Healthy subjects [1]; [6]
  SSR compliance social rules change from baseline, LS mean difference: −0.0
  SSR fullfilling expectations change from baseline, LS mean difference: −0.1
  SSR global change from baseline, LS mean difference: 0.3
Healthy subjects [1]; Day 84, psilocybin 25 mg
  SSR compliance social rules change from baseline (LS mean): 0.0
  SSR fullfilling expectations change from baseline (LS mean): −0.0
  SSR global change from baseline (LS mean): 0.1
Healthy subjects [1]; [7]
  SSR compliance social rules change from baseline, LS mean difference: 0.1
  SSR fullfilling expectations change from baseline, LS mean difference: 0.2
  SSR global change from baseline, LS mean difference: 1.8
Healthy subjects [1]; [8]
  SSR compliance social rules change from baseline, LS mean difference: 0.1
  SSR fullfilling expectations change from baseline, LS mean difference: 0.0
  SSR global change from baseline, LS mean difference: 2.2
Healthy subjects [2]; psilocybin 10 mg
  SCL-90-somatisation change from baseline, LS mean: 0.1
  SCL-90 anger hostility change from baseline, LS mean: −0.0
  SCL-90 anxiety change from baseline, LS mean: −0.0
  SCL-90 depression change from baseline, LS mean: 0.0
  SCL-90 interpersonal sensitivity change from baseline, LS mean: −0.0
  SCL-90 obsessive compulsive change from baseline, LS mean: −0.1
  SCL-90 paranoid ideation change from baseline, LS mean: −0.0
  SCL-90 phobic anxiety change from baseline, LS mean: −0.0
  SCL-90 psychoticism change from baseline, LS mean: 0.0
Healthy subjects [2]; psilocybin 10 mg - placebo
  SCL-90-somatisation change from baseline, LS mean difference: 0.1
  SCL-90 anger hostility change from baseline, LS mean difference: −0.0
  SCL-90 anxiety change from baseline, LS mean difference: −0.0
  SCL-90 depression change from baseline, LS mean difference: 0.0
  SCL-90 interpersonal sensitivity change from baseline, LS mean difference: −0.0
  SCL-90 obsessive compulsive change from baseline, LS mean difference: 0.1
  SCL-90 paranoid ideation change from baseline, LS mean difference: 0.0
  SCL-90 phobic anxiety change from baseline, LS mean difference: −0.0
  SCL-90 psychoticism change from baseline, LS mean difference: 0.0
Healthy subjects [2]; psilocybin 25 mg
  SCL-90-somatisation change from baseline, LS mean: 0.1
  SCL-90 anger hostility change from baseline, LS mean: −0.0
  SCL-90 anxiety change from baseline, LS mean: −0.0
  SCL-90 depression change from baseline, LS mean: 0.0
  SCL-90 interpersonal sensitivity change from baseline, LS mean: 0.0
  SCL-90 obsessive compulsive change from baseline, LS mean: −0.1
  SCL-90 paranoid ideation change from baseline, LS mean: 0.1
  SCL-90 phobic anxiety change from baseline, LS mean: 0.0
  SCL-90 psychoticism change from baseline, LS mean: 0.0
Healthy subjects [2]; psilocybin 25 mg - 10 mg
  SCL-90-somatisation change from baseline, LS mean difference: −0.0
  SCL-90 anger hostility change from baseline, LS mean difference: 0.0
  SCL-90 anxiety change from baseline, LS mean difference: 0.0
